Measured values as given in the supplement of paper PMC5908809.

Experiments:
IMC-1 (IL-2 20 ng/mL) [1] = experiment: percent inhibition of viability; higher = more inhibition; conditions: 72 h
[2] = system: normal primary NK cells, pool 1 (3 donors), resting (IL-2 0 ng/mL); experiment: as above; conditions: 72 h
NKL (IL-2 2.5 ng/mL) [3] = experiment: as above; conditions: 72 h
KAI3 (IL-2 2.5 ng/mL) [4] = experiment: as above; conditions: 72 h
[5] = system: normal primary NK cells, pool 3 (3 donors) (IL-2 2.5 ng/mL); experiment: as above; conditions: 72 h
[6] = system: normal primary NK cells, pool 2 (3 donors) (IL-2 2.5 ng/mL); experiment: as above; conditions: 72 h
[7] = system: normal primary NK cells, pool 1 (3 donors) (IL-2 2.5 ng/mL); experiment: as above; conditions: 72 h
YT (IL-2 2.5 ng/mL) [8] = experiment: as above; conditions: 72 h
DERL-7 (IL-2 2.5 ng/mL) [9] = experiment: as above; conditions: 72 h
KHYG-1 (IL-2 2.5 ng/mL) [10] = experiment: as above; conditions: 72 h
SNK-6 (IL-2 2.5 ng/mL) [11] = experiment: as above; conditions: 72 h
NK-YS (IL-2 2.5 ng/mL) [12] = experiment: as above; conditions: 72 h
NK-92 (IL-2 2.5 ng/mL) [13] = experiment: as above; conditions: 72 h
[14] = system: normal NK cells expanded with K562-aAPC; experiment: drug sensitivity score (DSS) (DSS units); higher = more sensitive; extreme values may be limits of the assay; conditions: 72 h; IL-2 2.5 ng/mL
Experimental: (§1)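 Drug sensitivity and resistance testing on K562-aAPC-expanded normal NK cells: 5 concentrations (10-fold steps over a 10,000-fold range), 72 h at 37 °C, viability by CellTiter-Glo normalised to DMSO and benzethonium chloride controls; DSS from the fitted curve.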

[15] = system: normal NK cells expanded with K562-aAPC; experiment: percent inhibition of viability; higher = more inhibition; conditions: 72 h, IL-2 2.5 ng/mL
Experimental: as §1

IMC-1 (IL-2 20 ng/mL) [16] = experiment: drug sensitivity score (DSS) (DSS units); higher = more sensitive; extreme values may be limits of the assay; conditions: 72 h
[17] = system: normal primary NK cells, pool 1 (3 donors), resting (IL-2 0 ng/mL); experiment: as above; conditions: 72 h
NKL (IL-2 2.5 ng/mL) [18] = experiment: as above; conditions: 72 h
KAI3 (IL-2 2.5 ng/mL) [19] = experiment: as above; conditions: 72 h
[20] = system: normal primary NK cells, pool 3 (3 donors) (IL-2 2.5 ng/mL); experiment: as above; conditions: 72 h
[21] = system: normal primary NK cells, pool 2 (3 donors) (IL-2 2.5 ng/mL); experiment: as above; conditions: 72 h
[22] = system: normal primary NK cells, pool 1 (3 donors) (IL-2 2.5 ng/mL); experiment: as above; conditions: 72 h
YT (IL-2 2.5 ng/mL) [23] = experiment: as above; conditions: 72 h
DERL-7 (IL-2 2.5 ng/mL) [24] = experiment: as above; conditions: 72 h
KHYG-1 (IL-2 2.5 ng/mL) [25] = experiment: as above; conditions: 72 h
SNK-6 (IL-2 2.5 ng/mL) [26] = experiment: as above; conditions: 72 h
NK-YS (IL-2 2.5 ng/mL) [27] = experiment: as above; conditions: 72 h
NK-92 (IL-2 2.5 ng/mL) [28] = experiment: as above; conditions: 72 h

CC[C@]1(O)C[C@H]2CN(CCc3c([nH]c4ccccc34)[C@@](C(=O)OC)(c3cc4c(cc3OC)N(C=O)[C@H]3[C@@](O)(C(=O)OC)[C@H](OC(C)=O)[C@]5(CC)C=CCN6CC[C@]43[C@@H]65)C2)C1 [Vincristine] (max concentration tested 1000 nM)
percent inhibition of viability [%]
Conditions	0.1 nM	1 nM	10 nM	100 nM	1000 nM
DERL-7 (IL-2 2.5 ng/mL) [9]	-4.76	-3.31	99.7	100	99.9
IMC-1 (IL-2 20 ng/mL) [1]	-6.56	-3.8	99.6	101	101
KAI3 (IL-2 2.5 ng/mL) [4]	-2.89	0.47	50	71.7	82.8
KHYG-1 (IL-2 2.5 ng/mL) [10]	-4.8	0.56	99.8	108	109
NK-92 (IL-2 2.5 ng/mL) [13]	0.11	-12.7	50.9	101	106
NK-YS (IL-2 2.5 ng/mL) [12]	-8.13	-3.11	72.6	72.9	87.9
NKL (IL-2 2.5 ng/mL) [3]	-4.74	5.25	97.5	99.9	101
SNK-6 (IL-2 2.5 ng/mL) [11]	-5.32	2.61	81.6	86.6	96.8
YT (IL-2 2.5 ng/mL) [8]	-6.99	-4.04	97.3	106	106
[2]	-21.8	5.88	11	33.2	38.4
[5]	-10	9.15	8.72	4.62	15.8
[6]	-7.02	11	16.4	18.7	25.8
[7]	-8.19	4.79	8.62	16.3	23.7
[15]	-6.33	-6.29	31.6	59	62.6

Conditions	drug sensitivity score
DERL-7 (IL-2 2.5 ng/mL) [24]	30.1
IMC-1 (IL-2 20 ng/mL) [16]	30.1
KAI3 (IL-2 2.5 ng/mL) [19]	20.7
KHYG-1 (IL-2 2.5 ng/mL) [25]	30.5
NK-92 (IL-2 2.5 ng/mL) [28]	24.3
NK-YS (IL-2 2.5 ng/mL) [27]	24.4
NKL (IL-2 2.5 ng/mL) [18]	30.9
SNK-6 (IL-2 2.5 ng/mL) [26]	27.4
YT (IL-2 2.5 ng/mL) [23]	29.8
[14]	15.5
[17]	6.94
[20]	0.39
[21]	4.98
[22]	2.75

CNC(=O)c1ccccc1Sc1ccc2c(/C=C/c3ccccn3)n[nH]c2c1 [Axitinib] (max concentration tested 10000 nM)
percent inhibition of viability [%]
Conditions	1 nM	10 nM	100 nM	1000 nM	10000 nM
DERL-7 (IL-2 2.5 ng/mL) [9]	-3.47	7.74	27	64.5	94
IMC-1 (IL-2 20 ng/mL) [1]	-1.86	-0.66	0.71	4.7	89.3
KAI3 (IL-2 2.5 ng/mL) [4]	2.52	-0.91	10.2	47.2	82
KHYG-1 (IL-2 2.5 ng/mL) [10]	-2.88	-3.36	4.43	49.4	93.1
NK-92 (IL-2 2.5 ng/mL) [13]	-13.6	-7.2	-14	24.3	90.7
NK-YS (IL-2 2.5 ng/mL) [12]	-3.68	-2.56	3.21	38.7	85
NKL (IL-2 2.5 ng/mL) [3]	-1.55	-1.93	18.9	32.5	69.6
SNK-6 (IL-2 2.5 ng/mL) [11]	-4.55	-16.4	-11.7	55.8	78.6
YT (IL-2 2.5 ng/mL) [8]	-2.15	-4.48	1.03	33	85
[2]	-14.3	9	2.7	0.6	42.6
[5]	-8.62	6.8	13	1.12	23
[6]	-13.7	4.14	6.01	-6.27	42.8
[7]	-5.69	14.3	5.75	13.8	44.6
[15]	-1.18	-2.54	-3.5	11.1	58.7

Conditions	drug sensitivity score
DERL-7 (IL-2 2.5 ng/mL) [24]	15.7
IMC-1 (IL-2 20 ng/mL) [16]	5.63
KAI3 (IL-2 2.5 ng/mL) [19]	10.5
KHYG-1 (IL-2 2.5 ng/mL) [25]	11
NK-92 (IL-2 2.5 ng/mL) [28]	8.68
NK-YS (IL-2 2.5 ng/mL) [27]	9.35
NKL (IL-2 2.5 ng/mL) [18]	8.51
SNK-6 (IL-2 2.5 ng/mL) [26]	10.8
YT (IL-2 2.5 ng/mL) [23]	9.19
[14]	5.02
[17]	2.23
[20]	0.95
[21]	1.77
[22]	3.89

Nc1nc(Cl)nc2c1ncn2[C@@H]1O[C@H](CO)[C@@H](O)[C@@H]1F [Clofarabine] (max concentration tested 10000 nM)
percent inhibition of viability [%]
Conditions	1 nM	10 nM	100 nM	1000 nM	10000 nM
DERL-7 (IL-2 2.5 ng/mL) [9]	-6.34	12.4	98.8	100	100
IMC-1 (IL-2 20 ng/mL) [1]	-5.2	-10.7	83.5	99.8	100
KAI3 (IL-2 2.5 ng/mL) [4]	-5.93	2	84.8	100	103
KHYG-1 (IL-2 2.5 ng/mL) [10]	-5.63	-3.93	98.4	101	102
NK-92 (IL-2 2.5 ng/mL) [13]	-17	2.38	98.2	101	104
NK-YS (IL-2 2.5 ng/mL) [12]	-2.94	-3.43	73.3	96.5	100
NKL (IL-2 2.5 ng/mL) [3]	-14.3	-3.55	97.4	102	105
SNK-6 (IL-2 2.5 ng/mL) [11]	-9.36	-23.6	95	96.3	98.6
YT (IL-2 2.5 ng/mL) [8]	-2.64	-4.64	17.5	78.8	85.4
[2]	-1.53	61.1	92.3	90.6	93.4
[5]	-5.8	12.6	91	98.5	99.3
[6]	1.6	18	90.5	95	96.2
[7]	1.34	32.7	95.2	96.8	97.6
[15]	-7.69	10	99.8	100	101

Conditions	drug sensitivity score
DERL-7 (IL-2 2.5 ng/mL) [24]	32.5
IMC-1 (IL-2 20 ng/mL) [16]	27.6
KAI3 (IL-2 2.5 ng/mL) [19]	28
KHYG-1 (IL-2 2.5 ng/mL) [25]	29.9
NK-92 (IL-2 2.5 ng/mL) [28]	30.5
NK-YS (IL-2 2.5 ng/mL) [27]	26.4
NKL (IL-2 2.5 ng/mL) [18]	29.8
SNK-6 (IL-2 2.5 ng/mL) [26]	28.5
YT (IL-2 2.5 ng/mL) [23]	16.8
[14]	32.1
[17]	35.8
[20]	30.7
[21]	31
[22]	33.7
